Source: ChEMBL document CHEMBL1157539, “Thousands of chemical starting points for antimalarial lead identification” (Nature, 2010)

Test system: Plasmodium falciparum
Test: GSK_TCMDC: Inhibition of Plasmodium falciparum 3D7 in whole erythrocytes, using parasite LDH activity as an index of growth.
Type: functional, organism-based

Row | Compound | XC50 (Plasmodium falciparum, 3D7) [µM] | XC50 [µM]
1 | NC1CCCN(Cc2cccc(-c3ccc(-c4nc5cc(F)ccc5[nH]4)cc3)c2)C1 (stereo unspecified) | 0.567 | –
2 | O=C(NCc1cccc(F)c1)Nc1cccc(-c2ccc(-c3nc4cc(C(F)(F)F)ccc4[nH]3)cc2)c1 | 0.766 | –
3 | COc1ccc(-c2cc(-c3ccc(S(C)(=O)=O)cc3)cnc2N)cn1 | 0.187 | –
4 | CC[C@H]1CN2CC[C@H]1C[C@H]2[C@H](O)c1cc(-c2cccc(Cl)c2)nc2ccc(OC)cc12 | 0.168 | –
5 | NCc1cccc(-c2ccc(CNC3CCN(Cc4ccccc4)CC3)cc2)c1 | 1.7 | –
6 | CCN(CCCN1CCCCC1)c1cc(C)nc(Nc2cccc(C(F)(F)F)c2)n1 | 0.289 | –
7 | Cc1cc(F)ccc1Nc1nc(N(C)c2ccccc2)c2cc(OCCN(C)C)ccc2n1 | 0.786 | –
8 | CCSc1ccc(C)cc1CON1C(N)=NC(N)=NC1(C)C | 0.0032 | –
9 | COc1cc(/C=C/C(=O)NC2CCC(CN3CCC(c4c[nH]c5ccccc45)CC3)CC2)ccc1O (stereo unspecified) | 0.809 | 0.791
10 | CCCCN(CCCC)Cc1cc(Nc2ccnc3cc(Cl)ccc23)ccc1O | 0.0172 | –
11 | COc1ccc(OC)c(Cc2c(C)nc3nc(N)nc(N)c3c2C)c1 | 0.864 | –
12 | Oc1ccc(CCNCCCCCCNCCc2ccc(Cl)c3ccccc23)cc1O | 0.716 | –
13 | CCc1c(C)nc2nc(Cc3cccc(F)c3)nn2c1N1CCN(c2ccccn2)CC1 | 0.75 | –
14 | CN(Cc1ccccc1)C1CCCN(c2cc(NC(=O)c3cccs3)ccn2)C1 (stereo unspecified) | 1.13 | –
15 | CCc1cc(NCc2ccncc2)nc(Nc2ccc(F)cc2)n1 | 1.33 | –
16 | NC(=O)c1cccc(CNC(=O)NC[C@H]2CN(Cc3ccc(Cl)c(Cl)c3)CCO2)c1 | 0.586 | –
17 | CN(c1ccc(NC(=O)CCOc2ccccc2)cc1)C1CCN(Cc2cccc(O)c2)CC1 | 1.32 | –
18 | Cc1cc(O)c(C(C)C)cc1C1(c2cc(C(C)C)c(O)cc2C)OC(=O)c2ccccc21 | 0.871 | –

Row | Compound | XC50 (Plasmodium falciparum, 3D7) [µM] | XC50 [µM]
19 | Cc1cc(C)cc(-n2c(C)cc(/C=C3\SC(=Nc4ccc(Cl)cc4)NC3=O)c2C)c1 | 0.0658 | –
20 | CCc1cn(CCCOC)c2ccc(C(=O)N[C@@H](Cc3ccccc3)[C@H](O)CNCc3cccc(C(F)(F)F)c3)cc12 | 0.186 | –
21 | CCCCNCc1ccc(-c2nc(CN(CCCn3ccnc3)C(=O)NC3CC3c3ccccc3)cs2)cc1 (stereo unspecified) | 0.744 | –
22 | CC(C)C[C@H](NC(=O)c1cc2ccccc2s1)C(=O)N[C@H]1CCN(Cc2ccc(I)c(OC3CCN(C)C3)c2)C1 (stereo partly specified) | 0.92 | –
23 | O=C(Nc1cccc(CN2CCN(Cc3ccc(O)cc3)CC2)c1)c1ccc(-c2ccccc2)cc1 | 0.245 | –
24 | O=C(Nc1ccc(Cl)cc1Cl)N[C@H]1CCN(CCCCCNC(=O)C2CC2c2ccc(Cl)c(Cl)c2)C1 (stereo partly specified) | 0.989 | –
25 | COC(=O)c1cccc(NC(=O)NC2CCN(c3ccnc(Nc4cc(OC)c(OC)c(OC)c4)n3)C2)c1 (stereo unspecified) | 0.512 | –
26 | CC[C@H]1CN2CC[C@H]1C[C@H]2[C@H](O)c1ccnc2ccc(C#N)cc12 | 0.147 | –
27 | COc1ccc2nc(-c3ccccc3)cc(N/N=C/c3ccc([N+](=O)[O-])cc3)c2c1 | 0.149 | –
28 | Cc1ccc2[nH]c3c(NCCCN4CCOCC4)ncnc3c2c1 | 0.942 | –
29 | O=C(Nc1cccc(-c2ccc(-c3nc4ccccc4[nH]3)cc2)c1)c1cnn2cccnc12 | 1.06 | –
30 | CCNc1cc(C)nc(Nc2ccc(NC(=O)c3c(F)cccc3Cl)cc2)n1 | 1.12 | –
31 | Cc1cc(C(=O)CN2C(=O)NC(C)(c3ccc4ccccc4c3)C2=O)c(C)n1Cc1ccco1 (stereo unspecified) | 0.661 | –
32 | c1cncc(-c2cc(N3CCCCC3)nc(-c3ccncc3)n2)c1 | 0.767 | –
33 | O=C(NC1CC1)c1ccc(N2CCCC(COc3ccccc3F)C2)nc1 (stereo unspecified) | 0.897 | –
34 | COc1ccccc1C(C)NCC(=O)Nc1cccc(C(=O)Nc2cccc(C(F)(F)F)c2)c1 (stereo unspecified) | 1.53 | –
35 | O=C(Nc1cc(C(F)(F)F)cc(C(F)(F)F)c1)c1cc(C(F)(F)F)cc(C(F)(F)F)c1 | 0.872 | –
